# Results as given in ChEMBL document CHEMBL1157845, “Structure-activity relationship of new anti-tuberculosis agents derived from oxazoline and oxazole benzyl esters” (Eur J Med Chem, 2010).
# Activity calls are given as the source filed them. Unless noted, the calls are words filed in the database; no cut-off is given here.
# Experiments:
# Vero = test: Cytotoxicity against african green monkey Vero cells by colorimetric assay; format: cell-based; conditions: Chlorocebus sabaeus
# [1] = system: Mycobacterium tuberculosis; test: Antimycobacterial activity against Mycobacterium tuberculosis Erdman infected in BALB/c mouse assessed as reduction of bacterial load at 200 mg/kg, po qd for 5 days per week administered 60 days after infection measured after 85 days post infection; format: functional, organism-based; set-up: dose 200 mg/kg
# [2] = system: Mycobacterium tuberculosis; test: Antimycobacterial activity against Mycobacterium tuberculosis H37Rv ATCC 27294 in GAS medium after 1 week by microplate alamar blue assay; format: functional; conditions: H37Rv ATCC 27294, 168 h
# [3] = system: Mycobacterium tuberculosis; test: Antimycobacterial activity against Mycobacterium tuberculosis H37Rv ATCC 27294 in GAST medium after 1 week by microplate alamar blue assay; format: functional; conditions: H37Rv ATCC 27294, 168 h
# [4] = system: Mycobacterium tuberculosis; test: Antimycobacterial activity against Mycobacterium tuberculosis H37Rv ATCC 27294 incubated 10 days under anaerobic condition measured after 24 hrs recovery in air by luciferase based low oxygen recovery assay; format: functional
# [5] = system: Mycolicibacterium fortuitum; test: Antimycobacterial activity against Mycobacterium fortuitum B by agar diffusion assay; format: functional, organism-based
# Mycobacterium avium [6] = test: Antimycobacterial activity against Mycobacterium avium MAC 108; format: functional, organism-based
# Candida albicans = test: Antifungal activity against Candida albicans; format: functional, organism-based
# Mus musculus [7] = test: Toxicity in mouse assessed as change in gross appearance at 100 mg/kg, po qd for 5 days followed by 2 days rest and 200 mg/kg, po qd for 5 days; format: organism-based; conditions: in vivo
# Staphylococcus aureus = test: Antibacterial activity against Staphylococcus aureus SG 511; format: functional, organism-based
# Mycobacterium avium [8] = test: Antimycobacterial activity against Mycobacterium avium MAC 101; format: functional, organism-based
# Mycobacterium avium [9] = test: Antimycobacterial activity against Mycobacterium avium MAC 109; format: functional, organism-based
# [10] = system: Mycolicibacterium fortuitum; test: Antimycobacterial activity against Mycobacterium fortuitum B; format: functional, organism-based
# Mycolicibacterium vaccae [11] = test: Antimycobacterial activity against Mycobacterium vaccae 10670; format: functional, organism-based
# Proteus vulgaris = test: Antibacterial activity against Proteus vulgaris OX 19; format: functional, organism-based
# Bacillus subtilis = test: Antibacterial activity against Bacillus subtilis ATCC 6633; format: functional, organism-based
# Mycolicibacterium vaccae [12] = test: Antimycobacterial activity against Mycobacterium vaccae 10670 by agar diffusion assay; format: functional, organism-based
# Mus musculus [13] = test: Toxicity in mouse assessed as behavioral change at 100 mg/kg, po qd for 5 days followed by 2 days rest and 200 mg/kg, po qd for 5 days; format: organism-based; conditions: in vivo
# Micrococcus luteus = test: Antibacterial activity against Micrococcus luteus ATCC 10240; format: functional, organism-based
# Liver microsomes = test: Metabolic stability in Sprague-Dawley rat microsomes assessed as compound remaining after 15 mins by HPLC analysis; format: ADME, Microsome; conditions: 0.25 h
# Mycobacterium avium [14] = test: Antimycobacterial activity against Mycobacterium avium MAC 116; format: functional, organism-based
# Mycolicibacterium aurum [15] = test: Antimycobacterial activity against Mycobacterium aurum SB 66; format: functional, organism-based
# Mus musculus [16] = test: Toxicity in mouse assessed as change in body weight at 100 mg/kg, po qd for 5 days followed by 2 days rest and 200 mg/kg, po qd for 5 days; format: organism-based; conditions: in vivo
# Colletotrichum = test: Antifungal activity against Glomerella; format: functional, organism-based
# Mycolicibacterium aurum [17] = test: Antimycobacterial activity against Mycobacterium aurum DSM 43536; format: functional, organism-based
# [18] = Chemical stability in simulated gastric fluid assessed as compound remaining after 2 hrs by HPLC analysis; format: physicochemical; conditions: simulated gi fluid
# Escherichia coli = test: Antibacterial activity against Escherichia coli SG 458; format: functional, organism-based
# [19] = system: Mycolicibacterium smegmatis; test: Antimycobacterial activity against Mycobacterium smegmatis SG 987; format: functional, organism-based
# Mycobacterium avium [20] = test: Antimycobacterial activity against Mycobacterium avium MAC 100; format: functional, organism-based
# [21] = system: Sporobolomyces salmonicolor; test: Antimicrobial activity against Sporobolomyces salmonicolor SBUG 549; format: functional, organism-based
structure (smiles),measurement,setting,value
O=C(OCc1ccccc1)[C@@H]1COC(c2cccc(Cl)c2)=N1,IC50,Vero,> 128 µM
same,Activity,[1],inactive
same,MIC,[2],11.6 µM
same,MIC,[3],1.8 µM
COc1ccc(CNC(=O)c2coc(-c3ccc([N+](=O)[O-])cc3)n2)cc1OC,IC50,Vero,> 128 µM
same,Activity,[1],inactive
same,MIC,[2],35.8 µM
same,MIC,[3],49.5 µM
C[C@@H]1OC(c2ccc(F)cc2[N+](=O)[O-])=N[C@@H]1C(=O)OCc1ccccc1,IC50,Vero,38.1 µM
same,Activity,[1],inactive
same,MIC,[2],12.5 µM
same,MIC,[3],4.11 µM
CCOc1ccc(-c2nc(C(=O)OCc3ccccc3)co2)cc1,IC50,Vero,> 128 µM
same,Activity,[1],inactive
same,MIC,[2],15.5 µM
same,MIC,[4],29.7 µM
same,MIC,[3],1.97 µM
Cc1oc(-c2ccc(F)cc2[N+](=O)[O-])nc1C(=O)OCc1ccccc1,IC50,Vero,> 128 µM
same,Activity,[1],inactive
same,MIC,[2],15 µM
same,MIC,[4],> 128 µM
same,MIC,[3],4.62 µM
O=C(OCc1ccccc1)c1coc(-c2ccc([N+](=O)[O-])c(F)c2)n1,IC50,Vero,> 128 µM
same,Activity,[1],inactive
same,MIC,[2],35.4 µM
same,MIC,[3],2.66 µM
COc1ccc(C2=N[C@H](C(=O)OCc3ccccc3)CO2)cc1,IC50,Vero,> 128 µM
same,Activity,[1],inactive
same,MIC,[2],26.1 µM
same,MIC,[3],2.29 µM
O=C(OCc1ccccc1)c1coc(-c2ccccc2OCc2ccccc2)n1,Activity,[5],Active
same,IC50,Vero,> 128 µM
same,Activity,Mycobacterium avium [6],inactive
same,Activity,Candida albicans,inactive
same,Activity,Mus musculus [7],Non-toxic
same,Activity,Staphylococcus aureus,inactive
same,Activity,[1],inactive
same,Activity,Mycobacterium avium [8],inactive
same,Activity,Mycobacterium avium [9],inactive
same,MIC,[2],62.6 µM
same,Activity,[10],inactive
same,Activity,Mycolicibacterium vaccae [11],inactive
same,Activity,Proteus vulgaris,inactive
same,Activity,Bacillus subtilis,inactive
same,Activity,Mycolicibacterium vaccae [12],Active
same,Activity,Mus musculus [13],Non-toxic
same,Activity,Micrococcus luteus,inactive
same,Stability,Liver microsomes,13%
same,Activity,Mycobacterium avium [14],inactive
same,Activity,Mycolicibacterium aurum [15],inactive
same,Activity,Mus musculus [16],Non-toxic
same,Activity,Colletotrichum,inactive
same,Activity,Mycolicibacterium aurum [17],inactive
same,MIC,[3],10.3 µM
same,Stability,[18],4.2%
same,Activity,Escherichia coli,inactive
same,Activity,[19],inactive
same,Activity,Mycobacterium avium [20],inactive
same,Activity,[21],inactive
O=C(OCc1ccccc1)[C@@H]1COC(c2ccc([N+](=O)[O-])c(F)c2)=N1,IC50,Vero,> 128 µM
same,Activity,[1],inactive
same,MIC,[2],30.2 µM
same,MIC,[4],59 µM
same,MIC,[3],3.68 µM
O=C(OCc1ccccc1)[C@@H]1COC(c2ccc(OCc3ccccc3)c(F)c2)=N1,IC50,Vero,> 128 µM
same,Activity,[1],inactive
same,MIC,[2],0.77 µM
same,MIC,[3],1.42 µM
O=C(OCc1ccccc1)[C@@H]1COC(c2ccccc2)=N1,Activity,[5],Active
same,IC50,Vero,> 128 µM
same,Activity,Mycobacterium avium [6],inactive
same,Activity,Candida albicans,inactive
same,Activity,Mus musculus [7],Non-toxic
same,Activity,Staphylococcus aureus,inactive
same,Activity,[1],inactive
same,Activity,Mycobacterium avium [8],inactive
same,Activity,Mycobacterium avium [9],inactive
same,MIC,[2],7.2 µM
same,Activity,[10],inactive
same,Activity,Mycolicibacterium vaccae [11],inactive
same,Activity,Proteus vulgaris,inactive
same,Activity,Bacillus subtilis,inactive
same,Activity,Mycolicibacterium vaccae [12],inactive
same,Activity,Mus musculus [13],Non-toxic
same,Activity,Micrococcus luteus,inactive
same,MIC,[4],63 µM
same,Stability,Liver microsomes,5.7%
same,Activity,Mycobacterium avium [14],inactive
same,Activity,Mycolicibacterium aurum [15],inactive
same,Activity,Mus musculus [16],Non-toxic
same,Activity,Colletotrichum,inactive
same,Activity,Mycolicibacterium aurum [17],inactive
same,MIC,[3],4.42 µM
same,Stability,[18],0.4%
same,Activity,Escherichia coli,inactive
same,Activity,[19],inactive
same,Activity,Mycobacterium avium [20],inactive
same,Activity,[21],inactive
O=C(OCc1ccccc1)c1coc(-c2ccc(Cl)cc2)n1,IC50,Vero,> 128 µM
same,Activity,[1],inactive
same,MIC,[2],18.9 µM
same,MIC,[4],56.2 µM
same,MIC,[3],7.77 µM
Nc1ccc(-c2nc(C(=O)OCc3ccccc3)co2)cc1,IC50,Vero,> 128 µM
same,Activity,[1],inactive
same,MIC,[2],1.98 µM
same,MIC,[4],68.6 µM
same,MIC,[3],3.67 µM
O=C(OCc1ccccc1)[C@@H]1COC(c2ccc([N+](=O)[O-])cc2)=N1,IC50,Vero,> 128 µM
same,Activity,[1],inactive
same,MIC,[2],30.6 µM
same,MIC,[3],7.59 µM
